US9073855B2, “BCL-2 selective apoptosis-inducing agents for the treatment of cancer and immune diseases” (AbbVie Inc., priority 2008, dated 2015)

Tests used:
GST-Bcl-2 = GST-Bcl-2 (Homo sapiens, UniProt P10415); assay: TR-FRET binding assay, GST-Bcl-2 with F-Bak peptide probe; settings: for Ki: TR-FRET Binding Affinity; for Binding selectivity ratio (Bcl-XL Ki/Bcl-2 Ki): TR-FRET, Bcl-XL Ki divided by Bcl-2 Ki
Procedure, shortened: (§1)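 Displacement of a fluorescein-labelled Bak peptide from the GST-tagged protein was followed by time-resolved FRET with a terbium anti-GST donor after 3 h incubation at room temperature. Inhibition constants were calculated with Wang's equation.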

GST-Bcl-XL = GST-Bcl-XL (Homo sapiens, UniProt Q07817); assay: TR-FRET binding assay, GST-Bcl-XL with F-Bak peptide probe; settings: TR-FRET Binding Affinity
Procedure, shortened: as §1

GST-Bcl-XL, sequence (Q07817 whole entry): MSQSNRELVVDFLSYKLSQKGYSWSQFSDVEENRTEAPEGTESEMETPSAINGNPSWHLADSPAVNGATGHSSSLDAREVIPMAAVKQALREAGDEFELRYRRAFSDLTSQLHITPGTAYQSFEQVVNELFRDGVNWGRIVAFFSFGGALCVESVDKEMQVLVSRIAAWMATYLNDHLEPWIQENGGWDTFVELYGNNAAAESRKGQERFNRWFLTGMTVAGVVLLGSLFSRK
GST-Bcl-2, sequence (P10415 whole entry): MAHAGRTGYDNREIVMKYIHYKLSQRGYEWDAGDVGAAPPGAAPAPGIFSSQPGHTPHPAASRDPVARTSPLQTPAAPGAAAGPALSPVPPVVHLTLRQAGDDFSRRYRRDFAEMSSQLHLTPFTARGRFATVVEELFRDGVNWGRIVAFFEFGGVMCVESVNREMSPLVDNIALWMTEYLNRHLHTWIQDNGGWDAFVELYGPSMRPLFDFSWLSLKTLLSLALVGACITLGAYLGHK

SMILES | Ki (GST-Bcl-2) [nM] | Binding selectivity ratio (Bcl-XL Ki/Bcl-2 Ki) (GST-Bcl-2) | Ki (GST-Bcl-XL) [nM]
CC1(C)CCC(CN2CCN(c3ccc(C(=O)NS(=O)(=O)c4cnc(OCCC5CCCO5)c(Cl)c4)c(Oc4cccc5[nH]ncc45)c3)CC2)=C(c2ccc(Cl)cc2)C1 (centres unmarked) [Example 461, 4-(4-{[2-(4-chlorophenyl)-4,4-dimethylcyclohex-1-en-1-yl]methyl}piperazin-1-yl)-N-{[5-chloro-6-(2-tetrahydrofuran-2-ylethoxy)pyridin-3-yl]sulfonyl}-2-(1H-indazol-4-yloxy)benzamide] | 0.093 | 39.4 | 3.65
CC1(C)CCC(CN2CCN(c3ccc(C(=O)NS(=O)(=O)c4ccc(NC[C@H]5CC[C@H](C#N)CC5)c([N+](=O)[O-])c4)c(Oc4cccc5[nH]cnc45)c3)CC2)=C(c2ccc(Cl)cc2)C1 [Example 462, Trans-2-(1H-benzimidazol-4-yloxy)-4-(4-{[2-(4-chlorophenyl)-4,4-dimethylcyclohex-1-en-1-yl]methyl}piperazin-1-yl)-N-[(4-{[(4-cyanocyclohexyl)methyl]amino}-3-nitrophenyl)sulfonyl]benzamide] | 0.026 |  | 18.4
CC1(C)CCC(CN2CCN(c3ccc(C(=O)NS(=O)(=O)c4cnc(OCC5CCC(F)(F)CC5)c(Cl)c4)c(Oc4cccc5[nH]cnc45)c3)CC2)=C(c2ccc(Cl)cc2)C1 [Example 463, 2-(1H-benzimidazol-4-yloxy)-N-({5-chloro-6-[(4,4-difluorocyclohexyl)methoxy]pyridin-3-yl}sulfonyl)-4-(4-{[2-(4-chlorophenyl)-4,4-dimethylcyclohex-1-en-1-yl]methyl}piperazin-1-yl)benzamide] | 0.007 | 6042.9 | 43.9
CC1(C)CCC(CN2CCN(c3ccc(C(=O)NS(=O)(=O)c4ccc(OCC5(F)CCOCC5)c(Cl)c4)c(Oc4cccc5[nH]ncc45)c3)CC2)=C(c2ccc(Cl)cc2)C1 [Example 464, N-({3-chloro-4-[(4-fluorotetrahydro-2H-pyran-4-yl)methoxy]phenyl}sulfonyl)-4-(4-{[2-(4-chlorophenyl)-4,4-dimethylcyclohex-1-en-1-yl]methyl}piperazin-1-yl)-2-(1H-indazol-4-yloxy)benzamide] | 0.081 | 6431.8 | 521
CC1(C)CC(c2ccc(Cl)cc2)=C(CN2CCN(c3ccc(C(=O)NS(=O)(=O)c4cnc(OCC5(F)CCOCC5)c(Cl)c4)c(Oc4cccc5[nH]ncc45)c3)CC2)CO1 [Example 465, N-({5-chloro-6-[(4-fluorotetrahydro-2H-pyran-4-yl)methoxy]pyridin-3-yl}sulfonyl)-4-(4-{[4-(4-chlorophenyl)-6,6-dimethyl-5,6-dihydro-2H-pyran-3-yl]methyl}piperazin-1-yl)-2-(1H-indazol-4-yloxy)benzamide] | 0.025 | 1472.4 | 37.2
CC1(C)CCC(CN2CCN(c3ccc(C(=O)NS(=O)(=O)c4cnc(OCC5CCC(F)(F)CC5)c(Cl)c4)c(Oc4cccc5[nH]ncc45)c3)CC2)=C(c2ccc(Cl)cc2)C1 [Example 482, N-({5-chloro-6-[(4,4-difluorocyclohexyl)methoxy]pyridin-3-yl}sulfonyl)-4-(4-{[2-(4-chlorophenyl)-4,4-dimethylcyclohex-1-en-1-yl]methyl}piperazin-1-yl)-2-(1H-indazol-4-yloxy)benzamide] | 0.064 | 5442.9 | 350
CC1(C)CCC(CN2CCN(c3ccc(C(=O)NS(=O)(=O)c4cnc(OC[C@H]5CC[C@H](C(N)=O)CC5)c(Cl)c4)c(Oc4cccc5[nH]ncc45)c3)CC2)=C(c2ccc(Cl)cc2)C1 [Example 483, N-({6-[(trans-4-carbamoylcyclohexyl)methoxy]-5-chloropyridin-3-yl}sulfonyl)-4-(4-{[2-(4-chlorophenyl)-4,4-dimethylcyclohex-1-en-1-yl]methyl}piperazin-1-yl)-2-(1H-indazol-4-yloxy)benzamide] | < 0.01 | >563.0 | 5.63
CC1(C)CCC(CN2CCN(c3ccc(C(=O)NS(=O)(=O)c4ccc(NC[C@H]5CC[C@H](C#N)CC5)c([N+](=O)[O-])c4)c(Oc4cccc5[nH]ncc45)c3)CC2)=C(c2ccc(Cl)cc2)C1 [Example 484, 4-(4-{[2-(4-chlorophenyl)-4,4-dimethylcyclohex-1-en-1-yl]methyl}piperazin-1-yl)-N-[(4-{[(trans-4-cyanocyclohexyl)methyl]amino}-3-nitrophenyl)sulfonyl]-2-(1H-indazol-4-yloxy)benzamide] | < 0.01 | >3433.9 | 34.3
CC1(C)CCC(CN2CCN(c3ccc(C(=O)NS(=O)(=O)c4cnc(OCCn5ccnc5)c(Cl)c4)c(Oc4cccc5[nH]ncc45)c3)CC2)=C(c2ccc(Cl)cc2)C1 [Example 485, N-({5-chloro-6-[2-(1H-imidazol-1-yl)ethoxy]pyridin-3-yl}sulfonyl)-4-(4-{[2-(4-chlorophenyl)-4,4-dimethylcyclohex-1-en-1-yl]methyl}piperazin-1-yl)-2-(1H-indazol-4-yloxy)benzamide] | 0.167 | 324.0 | 54.2
Cn1cncc1COc1ncc(S(=O)(=O)NC(=O)c2ccc(N3CCN(CC4=C(c5ccc(Cl)cc5)CC(C)(C)CC4)CC3)cc2Oc2cccc3[nH]ncc23)cc1Cl [Example 486, N-({5-chloro-6-[(1-methyl-1H-imidazol-5-yl)methoxy]pyridin-3-yl}sulfonyl)-4-(4-{[2-(4-chlorophenyl)-4,4-dimethylcyclohex-1-en-1-yl]methyl}piperazin-1-yl)-2-(1H-indazol-4-yloxy)benzamide] | 0.328 | 77.6 | 25.5
CC1(C)CCC(CN2CCN(c3ccc(C(=O)NS(=O)(=O)c4cnc(OCC5CCOCC5)c(F)c4)c(Oc4cccc5[nH]ncc45)c3)CC2)=C(c2ccc(Cl)cc2)C1 [Example 487, 4-(4-{[2-(4-chlorophenyl)-4,4-dimethylcyclohex-1-en-1-yl]methyl}piperazin-1-yl)-N-{[5-fluoro-6-(tetrahydro-2H-pyran-4-ylmethoxy)pyridin-3-yl]sulfonyl}-2-(1H-indazol-4-yloxy)benzamide] | 0.033 | 2287.2 | 75.4
CC1(C)CCC(CN2CCN(c3ccc(C(=O)NS(=O)(=O)c4cnc(OCC5COCCO5)c(Cl)c4)c(Oc4cccc5[nH]ncc45)c3)CC2)=C(c2ccc(Cl)cc2)C1 (centres unmarked) [Example 488, N-{[5-chloro-6-(1,4-dioxan-2-ylmethoxy)pyridin-3-yl]sulfonyl}-4-(4-{[2-(4-chlorophenyl)-4,4-dimethylcyclohex-1-en-1-yl]methyl}piperazin-1-yl)-2-(1H-indazol-4-yloxy)benzamide] | < 0.01 | >2345.9 | 23.5
CC1(C)CCC(CN2CCN(c3ccc(C(=O)NS(=O)(=O)c4cnc(OCC5(O)CCC(F)(F)CC5)c(Cl)c4)c(Oc4cccc5[nH]ncc45)c3)CC2)=C(c2ccc(Cl)cc2)C1 [Example 490, N-({5-chloro-6-[(4,4-difluoro-1-hydroxycyclohexyl)methoxy]pyridin-3-yl}sulfonyl)-4-(4-{[2-(4-chlorophenyl)-4,4-dimethylcyclohex-1-en-1-yl]methyl}piperazin-1-yl)-2-(1H-indazol-4-yloxy)benzamide] | 1.14 | 92.7 | 106
CC1(C)CCC(CN2CCN(c3ccc(C(=O)NS(=O)(=O)c4cnc(OCC5CC5(F)F)c(Cl)c4)c(Oc4cccc5[nH]ncc45)c3)CC2)=C(c2ccc(Cl)cc2)C1 (centres unmarked) [Example 491, N-({5-chloro-6-[(2,2-difluorocyclopropyl)methoxy]pyridin-3-yl}sulfonyl)-4-(4-{[2-(4-chlorophenyl)-4,4-dimethylcyclohex-1-en-1-yl]methyl}piperazin-1-yl)-2-(1H-indazol-4-yloxy)benzamide] | 0.017 | 4600.5 | 77.2
CC1(C)CCC(CN2CCN(c3ccc(C(=O)NS(=O)(=O)c4cnc(OC[C@H]5CC[C@H](C#N)CC5)c(Cl)c4)c(Oc4cccc5[nH]ncc45)c3)CC2)=C(c2ccc(Cl)cc2)C1 [Example 492, N-({5-chloro-6-[(trans-4-cyanocyclohexyl)methoxy]pyridin-3-yl}sulfonyl)-4-(4-{[2-(4-chlorophenyl)-4,4-dimethylcyclohex-1-en-1-yl]methyl}piperazin-1-yl)-2-(1H-indazol-4-yloxy)benzamide] | < 0.01 | >4509.6 | 45.1
CC1(C)CCC(CN2CCN(c3ccc(C(=O)NS(=O)(=O)c4cnc(OCC5CCC(C)(O)CC5)c(Cl)c4)c(Oc4cccc5[nH]ncc45)c3)CC2)=C(c2ccc(Cl)cc2)C1 (stereo not drawn) [Example 493, N-({5-chloro-6-[(cis-4-hydroxy-4-methylcyclohexyl)methoxy]pyridin-3-yl}sulfonyl)-4-(4-{[2-(4-chlorophenyl)-4,4-dimethylcyclohex-1-en-1-yl]methyl}piperazin-1-yl)-2-(1H-indazol-4-yloxy)benzamide] | < 0.01 | >4188.3 | 41.9
CC1(C)CCC(CN2CCN(c3ccc(C(=O)NS(=O)(=O)c4cnc(OCC5CCC(C)(O)CC5)c(Cl)c4)c(Oc4cccc5[nH]ncc45)c3)CC2)=C(c2ccc(Cl)cc2)C1 (stereo not drawn) [Example 494, N-({5-chloro-6-[(trans-4-hydroxy-4-methylcyclohexyl)methoxy]pyridin-3-yl}sulfonyl)-4-(4-{[2-(4-chlorophenyl)-4,4-dimethylcyclohex-1-en-1-yl]methyl}piperazin-1-yl)-2-(1H-indazol-4-yloxy)benzamide] | < 0.01 | >1556.6 | 15.6
